Source: a melting point compilation (Tetko et al.; mined from patent text by program, amines drawn as free bases though some values may be those of a salt)

Compound	melting point
CC=C(C)C1CCC2C3CC(=O)C4=CC(=O)CCC4(C)C3CCC12C (stereo not drawn)	172 to 178 °C
COc1ccc(Cn2c(=O)[nH]c3cc(Cl)ccc3c2=O)cc1	254 to 256 °C
O=C(O)CC[C@@H](Cc1cn(CCCc2ccccc2)c2ccccc12)NC(=O)CCCCCCc1ccccc1	100 to 102 °C
CCC1c2ccc(C#N)n2-c2ccc(F)cc2N1S(=O)(=O)c1ccc(O)c(C)c1 (stereo not drawn)	192 to 194 °C
CCN1CNS(=O)(=O)c2cc(O)ccc21	214 to 218 °C
COC(=O)C(C(=O)OC)C(C)(N)C(Cc1ccccc1[N+](=O)[O-])c1ccccc1 (stereo not drawn)	114 °C
Cc1cc(Cl)cc(CO[C@H]2CCCN(Cc3nc(=O)[nH][nH]3)[C@H]2c2ccccc2)c1	227 to 228 °C
CCCCn1nc(C(C)C)c(C(=O)O)c1Cc1ccc(-c2ccccc2-c2nnn[nH]2)cc1	103 to 108 °C
CCOP(=O)(OCC)C(OC)c1ccc(N)cc1 (stereo not drawn)	100 to 101 °C
COc1ccc2c(c1)C13CCN(C)C(C2)C1OC(C)(C)OC3 (stereo not drawn)	132 to 133 °C
CSc1ccc(-c2nn(CC3CC3)c(=O)cc2-c2ccc(Cl)cc2)cc1	142 to 143 °C
CC(C)CNC(=O)[C@H]1C[C@H](C(=O)OC(C)(C)C)N(C(=O)CNC(=O)Nc2cccc(C(=O)O)c2)[C@@H]1c1ccccc1F (racemic)	160 °C
CC(C)(C)OC(=O)CN1C(=O)[C@H](N)CCc2ccccc21	113 to 115 °C
CCS(=O)(=O)c1ccc(COc2cccc3c2CN(C2CCC(=O)NC2=O)C3=O)cc1 (stereo not drawn)	248 to 250 °C
CC(C)CN1C(=O)[C@@H](CC(=O)O)N=C(c2ccccc2Cl)c2cc(Cl)ccc21	175 to 178 °C
c1ccc(-c2cc(N3CCNCC3)nc(-c3ccccn3)n2)nc1	159 to 161 °C
O=C(Nc1nc(-c2ccc([N+](=O)[O-])cc2)cs1)OCC(Cl)(Cl)Cl	207 to 209 °C
CCCCCCS(=O)(=O)Cc1ccc(C(C)(C)NC(=O)OC)cc1	104 to 105 °C
COc1cc2nc(-c3n[nH]cc3NC(=O)C3CC3)[nH]c2cc1Cl	225 to 226 °C
CCc1ccnc(C(=O)c2[nH]c3cc(Cl)ccc3c2CC(=O)O)c1Cl	158 °C
Clc1ccc2c(c1)-c1[nH]ncc1CO2	175 to 176 °C

Compound	melting point
CC(Oc1ccc([N+](=O)[O-])cc1F)c1c(Cl)cccc1Cl (stereo not drawn)	120 °C
c1ccc(COc2ccc(NC3=NN(c4ccccc4)CC3)cc2)cc1	187 to 188 °C
O=c1ccc(-c2ccc(Cl)c(Cl)c2)nn1CN1CCN(Cn2nc(-c3ccc(Cl)c(Cl)c3)ccc2=O)CC1	234 to 236 °C
CCOC(=O)C(C)(C)n1c(=O)[nH]c2ccsc2c1=O	156 to 157 °C
CC(C)(C)OC(=O)Nc1ccsc1CC(=O)O	70 to 72 °C
O=C1Nc2ccc(I)cc2C1=NNC(=O)c1ccc(OC(F)(F)F)cc1	306 °C
O=C(O)c1ccccc1Nc1ccc(O)c(Cl)c1	180 to 183 °C
O=C(NC(=O)C(c1ccccc1)c1ccccc1)OC1CCCCC1	117 to 119 °C
O=S(=O)(Cc1ccccc1)c1nnnn1Cc1ccccc1	94 to 96 °C
Cc1ccc2[nH]c(C(=O)O)cc2c1O	262 °C
CC(C)[C@H](NC(=O)Cc1csc(N(C)C)n1)C(=O)N[C@@H](Cc1ccccc1)C[C@H](O)[C@H](Cc1ccccc1)NC(=O)Cc1cncs1	162 to 165 °C
COc1ccc(S(=O)(=O)NC(C)c2cc(F)ccc2-c2ccccc2F)cc1 (stereo not drawn)	133 to 135 °C
CCOC(=O)c1ncc(Cl)cc1NC(C)=O	98 to 100 °C
N#Cc1csc(CN2C(=O)C3(COc4cc5c(cc43)OCO5)c3ccccc32)c1 (stereo not drawn)	207 to 209 °C
CSc1ccc(C2OC(=O)NC2CO)cc1 (stereo not drawn)	130 to 131 °C
CC(=O)OCC1OC(n2cc(C)c(-n3cncn3)nc2=O)CC1N=[N+]=[N-] (stereo not drawn)	143 to 145 °C
FC(F)c1nc2ccccc2n1-c1nc(Nc2ncccn2)nc(N2CCOCC2)n1	261 to 263 °C
COc1cc(C2c3cc4c(cc3C(NC(=O)CNCCN(C)C)C3COC(=O)C23)OCO4)cc(OC)c1O (stereo not drawn)	230 °C
O=C(O)c1ccc2c(c1)C(=C(Cl)Cl)OC(=C(Cl)Cl)O2	199 to 200 °C
CC[C@@H]1O[C@](/C=C/C2CC2)(C(F)(F)F)c2cc(Cl)ccc2NC1=O (relative stereo)	147 to 148 °C
c1ccc2c(c1)c1ccccc1n2CCCCCCn1c2ccccc2c2ccccc21	124 to 126 °C

Compound	melting point
O=C1CC(O)CC(C=Cc2c3c(nn2-c2ccc(F)cc2)C(Cc2ccccc2)CCC3)O1 (racemic)	185 to 187 °C
CCOC(=O)C1N=C(c2ccccc2)c2cc(Cl)ccc2NC1=O (stereo not drawn)	244 °C
O=C(Nc1nccs1)C(CC1CCCC1)c1cccc(C(F)(F)F)c1 (stereo not drawn)	134 to 136 °C
Cc1cc2c(-c3cccc(/C=C/c4nnn[nH]4)c3)c(CC(=O)Nc3ccc(F)cc3C(F)(F)F)c(=O)oc2cc1Cl	216 to 218 °C
C#CC[C@H]1CC[C@H](CO)CC1	106 to 108 °C
CCC(=O)Nc1c(Cl)cc(Cl)c(-c2nsc(C(F)(F)F)c2Cl)c1Br	156 °C
COc1ccc(N2CCN(CC(O)COc3cccc4cc(C(C)=O)oc34)CC2)cc1 (stereo not drawn)	173 to 175 °C
CC(C)(C(=O)N1CCc2ccccc2C1)c1ccc(S(=O)(=O)/C=C/C#N)cc1	54 to 60 °C
CCOC(=O)Cc1ccc2c(c1)C(O)c1ccccc1O2 (stereo not drawn)	214 to 219 °C
O=S(=O)(c1ccccc1)N1CCC(C(=NCCc2ccccc2)c2ccc(F)cc2)CC1	123 to 126 °C
O=C1CC(C(=O)O)C2(CCCCC2)C1 (stereo not drawn)	146 to 147 °C
CC(c1cccnc1)N(c1ccc(F)cc1)S(C)(=O)=O (stereo not drawn)	82 to 85 °C
Brc1ccc2c(C3CCNCC3)n[nH]c2c1	163 to 165 °C
O=C(O)C1CCc2cc(O)ccc21 (stereo not drawn)	137 to 138 °C
Cc1c(C#N)c(=O)oc2c(C)c(O)c(CC(Br)CBr)cc12 (stereo not drawn)	175 to 176 °C
CSCCC(=O)Nc1cc(-c2c(-c3ccc(F)c(C)c3)nc3cccnn23)ccn1	158 to 159 °C
Cc1cccc(-c2n[nH]cc2-c2ccc(F)c(-c3c[nH]c(CCO)n3)c2)n1	219 to 220 °C
CC(C)(C)c1ccc(N2CCOCC2)c(NC(=O)C(F)(F)F)c1	89 to 90 °C
CS(=O)(=O)c1ccc(Cn2ccc(OCc3ccc(F)cc3F)c(Cl)c2=O)cc1	223 to 225 °C
CSC(=NC(=O)Cc1ccccc1)N(C)N=Cc1ccccc1	147 to 148 °C

Further lines, results first:

melting point	Compound
137 °C	CCOC(=O)C(CCc1ccccc1)NC(CCCCNC(=O)CNC(=O)OC(C)(C)C)C(=O)O (stereo not drawn)
152 to 155 °C	COc1ccc(-c2nnc(SC)nc2-c2ccc(OC)cc2)cc1
70 to 75 °C	COc1cc2c(cc1OC)C(N1CCN(c3ccc4c(c3)CCC(=O)N4)CC1)=NCC2
228 °C	NS(=O)(=O)c1ccc(-c2cc(-c3nc(-c4ccc(C(F)(F)F)cc4F)cc(C(F)(F)F)n3)ccn2)s1
> 270 °C	N#Cc1cc2ccccc2n1-c1ccc(CO)cc1
173 to 174 °C	ON=Cc1cc(-c2ncc(C(F)(F)F)cc2Cl)ccc1Cl
88 to 96 °C	CN1C2CCC1CN(c1ccc(C#Cc3ccc(NC(=O)c4ccccc4)cc3)nn1)C2
139 to 140 °C	CCCCOc1c(CNC(=O)OC(C)(C)C)n(CC2CC2)c(=O)c2ccc(C(=O)OC)cc12
209 to 212 °C	Cc1nc2ccc(-c3ccc(OCC4(NC(=O)OCc5ccccc5)COC4)cc3)nn2c1-c1cnc(N)c(C(F)(F)F)c1
80 °C	Clc1ccccc1C(Cl)c1ccc(-c2ccccc2)cc1 (stereo not drawn)
140 to 141 °C	COCc1c2c(n(Cc3ccccc3)c1-c1ccccc1)C(C)CN(Cc1ccccc1)C2 (stereo not drawn)
169 to 170 °C	Clc1ccc2c(-n3cncn3)ccnc2c1
175 to 177 °C	Cc1cc(-c2ccccc2)n2nc(C)c(C#N)c2n1
198 to 199 °C	CC(=O)c1ccc(S(=O)(=O)Nc2ccccn2)cc1
181 to 182 °C	CCOC(=O)Cn1nc(O)c2ccccc21
182 to 183 °C	CCOC(=O)c1cccn2c(S(=O)(=O)Cl)c(C)nc12
> 250 °C	CN1C(C)(C)CC(NC(=O)c2ccc(-c3nc4cc(Cl)c(Cl)cc4[nH]3)c(O)c2)CC1(C)C
87 to 88 °C	CC(C)[C@H](NC(=O)OC(C)(C)C)[C@H](O)C(F)(F)F

melting point	Compound
140 to 141 °C	CCCCc1ncc(/C=C(\Cc2cccs2)C(=O)O)n1Cc1ccc(OC)c(C)c1
126 to 127 °C	COn1cc(C#N)c(C#N)c1-c1ccc(Cl)cc1
233 to 235 °C	CC1(C(=O)c2c[nH]c3ncc(-c4cccc(N5CCN(S(N)(=O)=O)CC5)c4)nc23)CCCCC1
47 to 49 °C	CCCCCN(CCCCC)CCC(O)(P(=O)(O)O)P(=O)(O)O
72 to 73 °C	CCOC(=O)c1ccc(N(C=O)Cc2ccc(Cl)cc2)cc1
65 °C	CC(=O)OC1CCc2c(C#N)cccc21 (stereo not drawn)
151 to 152 °C	c1coc(-c2nnc(-n3ccnc3)c3ccccc23)c1
145 to 148 °C	COc1ccc(Cn2cnc3c(-c4ccco4)nc(I)nc32)cc1
208 °C	CC(C)(C)OC(=O)NC(COCc1ccccc1)c1nc2c(C(F)(F)F)cccc2c(O)c1C(=O)Nc1nccs1 (stereo not drawn)
88 to 89 °C	CC(C)(C)OC(=O)NC[C@H]1CC[C@H](CO)CC1
100 to 102 °C	Cc1nc(-c2ccccc2C(F)(F)F)c(-c2ccccc2C(F)(F)F)o1
217 to 219 °C	CCOC(=O)c1cnc(Nc2ccccc2OC)[nH]c1=O
148 to 149 °C	Oc1ccc2c(c1O)OCC(c1cccc(F)c1)C2 (stereo not drawn)
87 to 91 °C	COc1cccc(C2C(=O)NC(=O)C2c2cn3c4c(cccc24)CCC3)c1 (stereo not drawn)
330 to 333 °C	Cc1cccc(-c2cc3cnc(N)nc3nc2N)c1C
116 to 118 °C	CCc1nc2c(cnn2CC)c(NC2CCOCC2)c1CNC(=O)c1cc(C)cc(C(=O)NCc2cccc(Br)c2)c1
206 to 209 °C	CCc1nn(C2CN(C(C)C)C2)c2c(=O)[nH]c(-c3cc(S(C)(=O)=O)ccc3OCC(C)C)nc12
169 to 172 °C	Nc1ncnc2sc(Cc3cccnc3)c(-c3ccc(NC(=O)Nc4cccc(Cl)c4)cc3)c12
